Data reported in patent publication US7465814B2, “Sulfonate compound and fluorescent probe using the same” (priority 2003, dated 2008).
Read-outs that look alike come from different tables or passages of the source.

Columns and labels:
[1] = Fluorescent response to H2O2 (Table 1); format: biochemical; settings: relative fluorescence intensity, blank = 10; probe 21.3 μM, H2O2 50 μM, 37° C., 10 minutes
Experimental: (§1) Moreover, in other conditions than those of the above-described tests, reactivity of all of the compounds 1a to 1d with H2O2, other various kinds of nucleophilic agents, reducing agents and the like also was tested, respectively. More specifically, fluorescent responses of 1a to 1d with respect to a XO-HPX system, a XO-HPX-SOD system, H2O2, ascorbic acid, 1,4-hydroquinone, propylamine, diethylamine, glucose, esterase, a cytochrome P450 reductase+NADPH system, and a diaphorase+NADH system were measured, respectively. Operational processes thereof will be described below. Firstly, 1a to 1d and the above-described reagents were dissolved in HEPES of 10 mM having a pH of 7.4 so as to prepare solutions, respectively. Next, a 96 wellmicroplate was provided, where any of the solutions of 1a to 1d (25 μM, 170 μL) was poured into each of the wells, and furthermore, 30 μL of a blank solution or 30 μL of the solution of the reagent to be reacted therewith was added thereto. Final concentrations of the solutions in the wells were adjusted so that concentrations of the solutions of 1a to 1d respectively could be 21.3 μM, that of XO could be 13.1 mU/mL, those of HPX, H2O2, ascorbic acid, 1,4-hydroquinone, propylamine, diethylamine, glucose, NADPH and NADH respectively could be 50 μM, that of cytochrome P450 reductase could be 68 mU/mL, that of diaphorase could be 65 mU/mL, and that of esterase could be 0.5 U/mL, respectively. Then, after they reacted in the wells at 37° C. for 10 minutes, fluorescent responses were measured respectively. Fluorescence intensity measurement was conducted by using an ETC-272 Peltier thermostatted single cell holder (trade name) manufactured by JASCO Corporation or a SpectraMax GeminiEM fluorescence plate reader (trade name) manufactured by Molecular Devices Corporation provided with a FP-750 spectrofluorometer (trade name) manufactured by JASCO Corporation, and by setting excitation wavelengths and emission wavelengths so that those of 1a, 1b and 1c respectively could be 485 nm and 515 nm, and those of 1d respectively could be 511 nm and 540 nm.

[2] = Fluorescent response to glucose (Table 1); format: biochemical; settings: relative fluorescence intensity, blank = 10; probe 21.3 μM, glucose 50 μM, 37° C., 10 minutes
Experimental: as §1

[3] = Quantitativity of fluorescence response in the HPX/XO system, 96-well microplate assay; format: biochemical
Experimental: According to a 96 wellmicroplate assay, sensitivity and quantitativity of the fluorescence response of the probe (the compound 1d) in the HPX/XO system were tested. Specifically, a DMSO solution of 1d (10 mM) was diluted by 400-fold with HEPES (pH 7.4, 10 mM) so as to prepare a probe solution, and this probe solution (150 μL) was mixed with a HEPES solution of HPX (10 μL) and a HEPES solution of XO (0.26 U/mL, 10 μL), and was allowed to stand still at 37° C. for 10 minutes, and thereafter, a fluorescence intensity was measured. […] A correlation coefficient of this linear calibration curve was 1.000, and an inclination thereof was 0.58 au/pmol.
More specifically, an assay condition was the same as that in the above-described measurement, except providing a DMSO solution of 1d with a concentration of 5 mM, preparing a probe solution by diluting this DMSO solution by 400-fold with HEPES (pH 7.4, 10 mM), and using 180 μL of the probe solution. Fluorescence intensity measurement was conducted by using an ETC-272 Peltier thermostatted single cell holder (trade name) manufactured by JASCO Corporation or a SpectraMax GeminiEM fluorescence plate reader (trade name) manufactured by Molecular Devices Corporation provided with a FP-750 spectrofluorometer (trade name) manufactured by JASCO Corporation. As a result, a detection limit value of the concentration of HPX was 1.0 pmol (RSD, n=8; 2.9%), and a favorable linear calibration curve with a correlation coefficient of 0.9993 and an inclination of 0.80 au/pmol was obtained, with the concentration of HPX ranging from the detection limit value to 2.0 nmol. The inclination of this linear calibration curve is different from that of the above-described measurement, because of using the arbitrary units for the fluorescence intensities and the different measurement apparatuses.

[4] = Reactivity with superoxide and glutathione (FIG. 4); format: biochemical; settings: same conditions as 1-3 Superoxide-selectivity (2)
Experimental: as §1
The reactivity of each of the compounds 1d, 5a, 6a, 7 and 8a with respect to superoxide and glutathione (GSH) that is a kind of thiol was tested under the same conditions as those of [1-3. Superoxide-selectivity (2)] in Example 1. […] A vertical axis thereof denotes a fluorescence intensity, which is represented in % of control.

neutrophils = settings: for cell viability after the incubation with respect to before the incubation: 37° C., 120 minutes
Experimental: Moreover, a toxicity of the compound 1d with respect to the neutrophils was evaluated by estimating cell viability by a trypan blue dyeing method. More specifically, the neutrophils (1.0×10^5 cells) were incubated at 37° C. for 120 minutes in a glass test tube coated with human serum albumin, in the presence of both of the compound 1d (6.25 μM) and PMA (0.16 μM), in the presence of either of them, and in the absence of them, respectively. Then, cell viability after the incubation with respect to cell viability before the incubation was measured.

[5] = Fluorescent response to 1,4-hydroquinone (Table 1); format: biochemical; settings: relative fluorescence intensity, blank = 10; probe 21.3 μM, 1,4-hydroquinone 50 μM, 37° C., 10 minutes
Experimental: as §1

esterase = assay: Fluorescent response to esterase (Table 1); format: biochemical; settings: relative fluorescence intensity, blank = 10; probe 21.3 μM, esterase 0.5 U/mL, 37° C., 10 minutes
Experimental: as §1

[6] = Fluorescent response to propylamine (Table 1); format: biochemical; settings: relative fluorescence intensity, blank = 10; probe 21.3 μM, propylamine 50 μM, 37° C., 10 minutes
Experimental: as §1

[7] = Fluorescent response to ascorbic acid (Table 1); format: biochemical; settings: relative fluorescence intensity, blank = 10; probe 21.3 μM, ascorbic acid 50 μM, 37° C., 10 minutes
Experimental: as §1

Voltammetry measurement = format: physicochemical; settings: CH3CN—H2O (3:1) containing Et4NClO4
[8] = Fluorescent response to diethylamine (Table 1); format: biochemical; settings: relative fluorescence intensity, blank = 10; probe 21.3 μM, diethylamine 50 μM, 37° C., 10 minutes
Experimental: as §1

With `O=C1OC2(c3ccccc31)c1cc(F)c(OS(=O)(=O)c3ccc([N+](=O)[O-])cc3[N+](=O)[O-])c(F)c1Oc1c2cc(F)c(OS(=O)(=O)c2ccc([N+](=O)[O-])cc2[N+](=O)[O-])c1F` [Compound 1d] the “fluorescent response, H2O2” value [1] was 11, the “fluorescent response, glucose” value [2] was 10 and the “detection limit value of HPX” value ([3]; 10 mM DMSO solution diluted 400-fold, 150 μL probe solution, 37° C., 10 minutes) was 5.0 pmol. The “inclination of linear calibration curve” value ([3]; 10 mM DMSO solution diluted 400-fold, 150 μL, HPX from detection limit to 10.0 nmol) was 0.58 au/pmol, the “detection limit value of HPX” value ([3]; different apparatus, 5 mM DMSO solution diluted 400-fold, 180 μL probe solution) was 1.0 pmol and the “inclination of linear calibration curve” value ([3]; different apparatus, 5 mM DMSO solution, 180 μL, HPX from detection limit to 2.0 nmol) was 0.80 au/pmol. For the same compound, the “selectivity (specificity), superoxide versus glutathione, FIG. 4” value [4] was “excellent superoxide-selectivity”, the “cell viability after the incubation with respect to before the incubation” value (neutrophils; in the presence of both 1d (6.25 μM) and PMA (0.16 μM)) was 97% and the “toxicity with respect to the neutrophils” value (neutrophils; incubation of 120 minutes) was “did not show any significant toxicity”. The “cell viability after the incubation with respect to before the incubation” value (neutrophils; substance only (1d 6.25 μM or PMA 0.16 μM), 1.0×10^5 neutrophils) was 95%, the “fluorescent response, 1,4-hydroquinone” value [5] was 11 and the “fluorescent response, esterase” value (esterase) was 15. The “fluorescent response, propylamine” value [6] was 10, the “fluorescent response, ascorbic acid” value [7] was 11 and the cathode response (Voltammetry measurement) was “about −0.5 V vs SCE”. The “fluorescent response, diethylamine” value [8] was 11.
